“Also recorded” adds a separate entry of the source. One block for each compound: values may come before it.
How the values were obtained:
[1] = biological target: CXCR4 on human endothelial progenitor cells (EPCs) (human) (UniProt P61073); test: cell-based or functional assay
[2] = tested on: SDF1 promoter; test: SDF1 promoter luciferase reporter assay (pGL3b.SDF1.full) in HMEC-1; type: cell-based, human; settings: 0.1 mM cobalt chloride, 12 hours, HMEC-1 transfected with pGL3b.SDF1.full
Excerpt: The 1.4 kb 5′ SDF1 promoter region was cloned into the luciferase reporter vector pGL3-Basic (Promega) generating pGL.SDF1.full. 5′ deletion constructs were generated from pGL.SDF1.full using unique internal restriction sites SmaI/SacI, and XhoI. HBS-only contructs (HBS1, HBS2, or both) were generated by PCR and cloned into pGL3-Promoter (Promega). HBS1 was mutated using the mega-primer method (primers listed below) (Kammann et al., “Rapid Insertional Mutagenesis of DNA by Polymerase Chain Reaction (PCR),” Nucleic Acids Res. 17:5404 (1989), which is hereby incorporated by reference in its entirety). All constructs were sequenced to confirm their identity. Reporter plasmids were co-transfected with a constitutively expressed Renilla luciferase construct (pHRL-TK, Promega) into HMECs using the Genejammer reagent (Stratagene). 48 hours after transfection, cells were incubated in hypoxia or normoxia with and without 0.1 mM cobalt chloride (CoCl2) for 12 hours. Luciferase activity was determined using the Dual Luciferase System (Promega) and data were normalized to Renilla luciferase expression from at least four independent experiments. Co-transfection experiments using plasmids for oxygen […] HIF-1α (HIF-1.ΔODD) and the HIF-1α dominant negative (HIF-1.DN) were compared to control transfections using the appropriate empty vector (pcDNA3.1 and pCEP4, respectively) for each construct. […]

[3] = tested on: EPCs; test: Migration assay (modified transwell) of EPCs; type: cell-based, human; settings: 6 hour migration period
Description: Migration was studied using a modified transwell assay. EPCs (5×10^4) were seeded onto ChemoTx filters (5.7 mm, 8 μm pore, Neuro Probe) in EBM/0.5% FBS. […] Following the 6 hour migration period, nonmigrating cells were completely wiped from the top surface of the membrane. Migrating cells adherent to the undersurface of the filters were quantified using DAPI staining (Vector) with Kodak 1D software. Results are indicative of four independent experiments.

[4] = tested on: CXCR4+ EPCs / HUVEC monolayers; test: Adhesion assay of DiI-labeled CXCR4+ EPCs to HUVEC monolayers; type: cell-based, human; settings: monolayers pre-coated for 20 minutes with recombinant SDF-1
Description: Confluent HUVEC monolayers were subjected to normoxic or hypoxic culture for 6 hours. Human SDF-1αβ/PBSF (100 ng/ml, Sigma) was added where indicated. DiI-labeled EPCs (5×10^4) in EBM/0.5% FBS were added to each preconditioned monolayer and pre-adhesion fluorescence was measured using a Cytofluor 2320 (Millipore). After 3 hours, nonadherent cells were washed away, and post-adhesion fluorescence was measured. The percentage of adherent
cells was calculated using the following formula: [formula] Results are representative of three independent experiments.
HIF-1α siRNA (Berra et al, “HIF Prolyl-hydroxylase 2 is the Key Oxygen Sensor Setting Low Steady-state Levels of HIF-1α in Normoxia,” Embo. J. 22:4082-4090 (2003), which is hereby incorporated by reference in its entirety) (synthesized by Qiagen) was transfected into HUVECs using RNAiFect (Qiagen) in parallel with Lamin A/C and FITC-labeled control siRNAs according to the manufacturer=3 s protocol. Cells were treated with normoxic or hypoxic conditions starting 24 hours following transfection. Gene expression and adhesion assays were performed at 48 hours.

Chain of UniProt P61073 (P61073 whole entry): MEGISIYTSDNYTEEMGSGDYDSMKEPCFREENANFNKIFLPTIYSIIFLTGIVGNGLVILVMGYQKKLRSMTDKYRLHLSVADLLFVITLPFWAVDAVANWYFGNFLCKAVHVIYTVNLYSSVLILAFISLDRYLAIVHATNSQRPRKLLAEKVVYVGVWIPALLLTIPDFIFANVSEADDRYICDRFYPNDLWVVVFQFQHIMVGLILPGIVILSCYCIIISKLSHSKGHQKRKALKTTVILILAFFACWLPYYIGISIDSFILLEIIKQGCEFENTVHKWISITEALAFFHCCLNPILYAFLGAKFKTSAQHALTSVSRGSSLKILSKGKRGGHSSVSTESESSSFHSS

- EPC migration toward hypoxia-conditioned media after preincubating EPCs with neutralizing CXCR4 antibodies (HM+ab) [1]: 175 cells/hpf
Compound: neutralizing CXCR4 antibody (Clone 44716, R&D Systems)

Compound: [Cl][Co][Cl] [cobalt chloride]
- SDF1-specific luciferase expression [2]: four-fold

Compound: recombinant SDF-1: Recombinant human SDF-1αβ/PBSF (Sigma), chemokine
- EPC migration, effect in words [3]: EPC migration increased
- adhesion of CXCR4+ EPCs to normoxic HUVEC monolayers [4]: Increased adhesion; also recorded: adhered more EPCs

Reference: patent US20060154860A1, “Manipulating stem-progenitor cell trafficking to injured tissue and/or tumors by altering HIF-1 and/or SDF-1 activity” (priority 2004, published 2006)
